Data reported in US20200247812A1 (Integral Biosciences Private Limited, priority 2018, published 2020).

Experiments:
MV-4-11 = test: Cell viability assay (resazurin), MV-4-11; format: cell-based; settings: Homo sapiens, MV4-11, 72-144 hr
Protocol: (§1) Different cell lines such as pancreatic, (MIA PaCa-2; ATCC®CRL-1420™ & and Panc-1; CRL-1469™), liver carcinoma (HepG2; ATCC® HB-8065™), lung epithelial carcinoma (A549; ATCC® CCL-185™) and others were seeded in their respective medium (DMEM, Cat #10569044, MEM, Cat #41090036; RPMI, Cat #22400089; all with 10% FBS, Gibco, ThermoFisher) at a cell count of 3000 cells per 100 μl per well in a 96 well edge plate (167425; ThermoFisher). Cells were allowed to grow at 37° C. for 24 hr in 5% CO2 (culture conditions) in a Nuaire incubator (humidified). Serially diluted compounds (100 μl) were added to the culture plate 24 hr later and the cultures were further incubated in culture conditions for specified time depending on doubling time of specific cell line (ranging from 72-144 hr). Experiment was terminated at the completion of incubation time with the drug by replacing the medium with 100 μl of 1 mM of resazurin (R7017; Sigma) prepared in respective culture medium and the plates were further incubated in culture conditions for 4 hr. Fluorescence was then measured using a multimodal plate reader (Biotek Synergy Neo) at an excitation wavelength of 535 nm and emission wavelength of 590 nm to obtain relative fluorescence units. Data analysis was done by subtracting the background fluorescence (only medium blank) value from each reading and then normalizing with the vehicle control (DMSO treated cells) to obtain percent survival/proliferation. Percent survival at different doses was used to calculate IC50 by fitting the curve to the “four-parameter variable slope logistic model” using Prism Graph Pad.

mouse splenocytes = test: Mouse splenocyte viability assay (CD3e/CD28 activated, resazurin); format: cell-based; settings: CD3e/CD28 activated Balb/c splenocytes, 72 hr
Protocol: IC50 values of compounds for determining viability in CD3e/CD28 activated mouse splenocytes isolated from Balb/c mice cultured in RPMI, Cat #22400089; with 10% FBS, Gibco, ThermoFisher). Mouse splenocytes (2×10^5 cells/well) were activated with Anti-mouse CD3e (2.5 μg/ml, coated overnight at 4° C.; Cat #14-0032-82, eBioscience) and then incubated with serial dilutions of compounds (3 fold, 8 point dose response starting at 30 μM) for 30 min at 37° C., 5% CO2 in an incubator (cell culture conditions) prior to treating them with Anti-mouse CD28 (0.1 μg/ml soluble; Cat #16-0281-82, eBiosciences). Splenocytes were further incubated under cell culture conditions for 72 hr following which experiment was terminated by replacing the medium with 100 μl of 1 mM of resazurin (R7017; Sigma) prepared in respective culture medium and the plates were further incubated in culture conditions for 4 hr. Fluorescence was then measured using a multimodal plate reader (Biotek Synergy Neo) at an excitation wavelength of 535 nm and emission wavelength of 590 nm to obtain relative fluorescence units. Data analysis was done by subtracting the background fluorescence (only medium blank) value from each reading and then normalizing with the average of vehicle control (DMSO treated cells) to obtain percent survival/proliferation. […]

HepG2 = test: Cell viability assay (resazurin), HepG2; format: cell-based; settings: Homo sapiens, 72-144 hr
Protocol: as §1

A427 = test: Cell viability assay (resazurin), A427; format: cell-based; settings: Homo sapiens, A-427, 72-144 hr
Protocol: as §1

THP1 = test: Cell viability assay (resazurin), THP1; format: cell-based; settings: Homo sapiens, THP-1, 72-144 hr
Protocol: as §1

HT29 = test: Cell viability assay (resazurin), HT29; format: cell-based; settings: Homo sapiens, HT-29, 72-144 hr
Protocol: Different cell lines such as pancreatic, (MIA PaCa-2; ATCC®CRL-1420™ & and Panc-1; CRL-1469™), liver carcinoma (HepG2; ATCC® HB-8065™), lung epithelial carcinoma (A549; ATCC® CCL-185™) and others were seeded in their respective medium (DMEM, Cat #10569044, MEM, Cat #41090036; RPMI, Cat #22400089; all with 10% FBS, Gibco, ThermoFisher) at a cell count of 3000 cells per 100 μl per well in a 96 well edge plate (167425; ThermoFisher). Cells were allowed to grow at 37° C. for 24 hr in 5% CO2 (culture conditions) in a Nuaire incubator (humidified). Serially diluted compounds (100 μl) were added to the culture plate 24 hr later and the cultures were further incubated in culture conditions for specified time depending on doubling time of specific cell line (ranging from 72-144 hr). […] Fluorescence was then measured using a multimodal plate reader (Biotek Synergy Neo) at an excitation wavelength of 535 nm and emission wavelength of 590 nm to obtain relative fluorescence units. Data analysis was done by subtracting the background fluorescence (only medium blank) value from each reading and then normalizing with the vehicle control (DMSO treated cells) to obtain percent survival/proliferation. […]

A549 = test: Cell viability assay (resazurin), A549; format: cell-based; settings: Homo sapiens, 72-144 hr
Protocol: as §1

HCT116 = test: Cell viability assay (resazurin), HCT116; format: cell-based; settings: Homo sapiens, HCT-116, 72-144 hr
Protocol: as §1

ALK 5 = molecular target: T1, ALK 5 (Homo sapiens, UniProt P36897); test: In vitro kinase assay (ALK5 IC50, LanthaScreen Terbium labeled TR-FRET); format: biochemical; settings: TGF-β kinase 6 nM, ATP 10 μM, read-out: Enzyme Activity ALK 5 IC50
T1 sequence (P36897 34-503): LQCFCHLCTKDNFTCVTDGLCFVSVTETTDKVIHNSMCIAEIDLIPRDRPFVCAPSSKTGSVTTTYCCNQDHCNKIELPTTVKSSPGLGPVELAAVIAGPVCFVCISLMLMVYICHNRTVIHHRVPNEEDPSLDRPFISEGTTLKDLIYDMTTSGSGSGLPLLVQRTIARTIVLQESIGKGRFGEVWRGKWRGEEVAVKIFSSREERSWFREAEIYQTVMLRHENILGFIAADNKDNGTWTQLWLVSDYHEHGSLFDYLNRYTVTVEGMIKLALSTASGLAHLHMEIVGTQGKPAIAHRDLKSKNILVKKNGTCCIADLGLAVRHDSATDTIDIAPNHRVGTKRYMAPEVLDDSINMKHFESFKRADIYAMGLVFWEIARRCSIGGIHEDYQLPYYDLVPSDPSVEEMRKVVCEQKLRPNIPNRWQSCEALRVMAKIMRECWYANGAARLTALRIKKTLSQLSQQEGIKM
Summary of the method: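 LanthaScreen Tb TR-FRET: ALK5 (6 nM) preincubated 10 min with 3-fold diluted compounds, then 10 μM ATP and 200 nM fluorescent PolyGT substrate added for 1 h at room temperature. Stopped with EDTA/Tb antibody; 520/495 nm emission read. IC50 from four-parameter fit versus DMSO and no-enzyme controls.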

Compound | IC50 (MV-4-11) [µM] | IC50 (mouse splenocytes) [µM] | IC50 (HepG2) [µM] | IC50 (A427) [µM] | IC50 (THP1) [µM] | IC50 (HT29) [µM] | IC50 (A549) [µM] | IC50 (HCT116) [nM] | IC50 (ALK 5) [nM]
CC(=O)Nc1cc(Nc2cc(-c3cc(Cl)ccc3F)c(=O)[nH]c2C(C)C)ccn1 [Compound 1.48, N-(4-((5-(5-chloro-2-fluorophenyl)-2-isopropyl-6-oxo-1,6-dihydropyridin-3-yl)amino)pyridin-2-yl)acetamide] | 19.9 | > 30 | > 30 | > 30 | > 30 | 14.7 | > 30 | > 30000 | ≤ 500
CC(C)c1[nH]c(=O)c(-c2cc(Cl)ccc2F)cc1Nc1ccnc2[nH]ccc12 [Compound 1.50, 5-((1H-pyrrolo[2,3-b]pyridin-4-yl)amino)-3-(5-chloro-2-fluorophenyl)-6-isopropylpyridin-2(1H)-one] | 0.7 | > 30 | > 30 | 3.55 | 13.4 | 3.82 | > 30 | 1960 | ≤ 500
